In the assay the target is T1, hP2X4 (human purinergic P2X receptor subtype 4) (Homo sapiens, UniProt Q99571).
T1 sequence (Q99571 1-404 isoform Q99571-2): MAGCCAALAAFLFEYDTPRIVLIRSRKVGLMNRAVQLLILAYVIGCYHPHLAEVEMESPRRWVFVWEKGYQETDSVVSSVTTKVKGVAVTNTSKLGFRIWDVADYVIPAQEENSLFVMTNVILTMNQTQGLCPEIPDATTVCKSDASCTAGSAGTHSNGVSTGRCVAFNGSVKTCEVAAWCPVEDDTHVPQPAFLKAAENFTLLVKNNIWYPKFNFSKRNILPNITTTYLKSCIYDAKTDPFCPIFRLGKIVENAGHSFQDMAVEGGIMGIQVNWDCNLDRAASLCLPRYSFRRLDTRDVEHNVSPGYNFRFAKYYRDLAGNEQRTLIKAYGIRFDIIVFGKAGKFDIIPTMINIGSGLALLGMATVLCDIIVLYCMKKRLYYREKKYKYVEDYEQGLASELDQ
Description: FLIPR assay of intracellular calcium increase induced by activation of hP2X4 expressed in HEK293 cells (agonist BZ-ATP 2.5 μM). Conditions: HEK293 cells stably expressing hP2X4, FLIPR, class symbols, read-out: P2X4 IC50. The assay is classed as cell-based. As to the method:
The antagonist property of the compounds disclosed herein was determined using the FLIPR (fluorescence imaging plate reader) method, wherein the compounds are inhibitors for the intracellular calcium increase induced by activation of hP2X4 (human purinergic P2X receptor subtype 4, accession No. NM_001256796.2) expressed in HEK293 cells (human renal epithelial cell line, ATCC).
HEK293 cells stably expressing hP2X4 were cultured in DMEM high glucose medium containing 10% FBS (fetal bovine serum, Biosera, FB-1058/500), 1% penicillin-streptomycin (Gibco, 15140-122) and 1 mg/mL G418 (CABIOCHE, 345810) in a cell incubator (37° C., […]). Cells at 400,000 cells/mL were seeded into a 384-well plate (10,000 cells/well) 18-24 h prior to the FLIPR experiment and then incubated overnight in a cell incubator. On the day of the experiment, the medium was discarded and the cells were washed in an FLIPR buffer (0.3 mL of probenecid (Thermo, P36400), 0.6 mL of 1 M HEPES (Invitrogen, 15630080) and 29.1 mL of HBSS (Invitrogen, 14065056) per 30 mL of the buffer). Each well was added with 20 μL of 0.5× Calcium 6 fluorescent dye (Molecular Devices, R8190) and then the cells were subjected to dye-loading incubation at 37° C. for 1.5 h. Each well was added with 10 μL of respective test compound (dissolved in DMSO at a concentration of 10 mM and serially diluted with buffer) or vehicle and the mixture was equilibrated for 30 min at room temperature. The cell plate was then placed in the FLIPR for baseline fluorescence measurements (excitation at 485 nm and emission at 525-535 nm). An agonist (BZ-ATP (Sigma, B6396) at a final concentration of 2.5 μM) or a vehicle (ultrapure water) was then added at 10 μL/well, fluorescence values were measured for 2 min at 1-second intervals, and finally the output fluorescence counts were analyzed.
Background: Calcium flux is commonly read through the fluorescence of an indicator in the cells.
Consider `NS(=O)(=O)c1cc(NC(=O)Cc2ccccc2Cl)cc2cn(CCO)nc12` [Compound 48-A, 2-(2-chlorophenyl)-N-(2-(2-hydroxyethyl)-7-sulfamoyl-2H-indazol-5-yl)acetamide], for which the concentration for half-maximal inhibition (IC50) lay within 200 to 5000 nM.

On to `CCC1(n2cc3c(S(N)(=O)=O)cc(NC(=O)Cc4ccccc4Cl)cc3n2)CC1` [Compound 18, 2-(2-chlorophenyl)-N-(2-(1-ethylcyclopropyl)-4-sulfamoyl-2H-indazol-6-yl)acetamide], for which the IC50 fell in the range of 10 to 50 nM.

Consider `NS(=O)(=O)c1cc(NC(=O)Cc2ccccc2Cl)cc2nn(CCC3CC3)cc12` [Compound 33, 2-(2-chlorophenyl)-N-(2-(2-cyclopropylethyl)-4-sulfamoyl-2H-indazol-6-yl)acetamide], for which the IC50 was no more than 10 nM.

For `NS(=O)(=O)c1cc(NC(=O)Cc2ccccc2Cl)cc2c1cnn2C(F)F` [Compound 43, 2-(2-chlorophenyl)-N-(1-(difluoromethyl)-4-sulfamoyl-1H-indazol-6-yl)acetamide], the IC50 is 10 to 50 nM.

`NS(=O)(=O)c1cc(NC(=O)Cc2ccccc2Cl)cc2nn(CCOC3CC3)cc12` [Compound 28, 2-(2-chlorophenyl)-N-(2-(2-cyclopropyloxyethyl)-4-sulfamoyl-2H-indazol-6-yl)acetamide]: the IC50 was in the range of 10 to 50 nM.

Take `COc1ccc(Cn2cc3c(S(N)(=O)=O)cc(NC(=O)Cc4ccccc4Cl)cc3n2)nc1` [Compound 93]: the IC50 was no more than 10 nM.

Consider `CC(C)(F)n1cc2c(S(N)(=O)=O)cc(NC(=O)Cc3ccccc3Cl)cc2n1` [Compound 13, 2-(2-chlorophenyl)-N-(2-(2-fluoropropan-2-yl)-4-sulfamoyl-2H-indazol-6-yl)acetamide], for which the IC50 was 10 to 50 nM.

With `NS(=O)(=O)c1cc(NC(=O)Cc2ccccc2Cl)cc2nn(C(F)(F)C3CC3)cc12` [Compound 20, 2-(2-chlorophenyl)-N-(2-(cyclopropyldifluoromethyl)-4-sulfamoyl-2H-indazol-6-yl)acetamide], the IC50 was in the range of 10 to 50 nM.

For the molecule `NS(=O)(=O)c1cc(NC(=O)Cc2ccccc2Cl)cc2c1ncn2-c1ccc(Cl)cc1` [Compound 55, 2-(2-chlorophenyl)-N-(1-(4-chlorophenyl)-4-sulfamoyl-1H-benzo[d]imidazol-6-yl)acetamide], the IC50 lay within 10 to 50 nM.

`CS(=O)(=O)CCn1cc2c(S(N)(=O)=O)cc(NC(=O)Cc3ccccc3Cl)cc2n1` [Compound 30, 2-(2-chlorophenyl)-N-(2-(2-(methylsulfonyl)ethyl)-4-sulfamoyl-2H-indazol-6-yl)acetamide]: the IC50 was in the range of 10 to 50 nM.

On to `COc1ccc(Cn2cc3c(S(N)(=O)=O)cc(NC(=O)Cc4ccccc4Cl)cc3n2)c(Cl)c1` [Compound 86], for which the IC50 was no more than 10 nM.

Regarding “2-(2-chlorophenyl)-N-(1-(2-hydroxyethyl)-4-sulfamoyl-2H-indazol-6-yl)acetamide [Compound 27-B]”, the half-maximal inhibitory concentration (IC50) was in the range of 50 to 200 nM.

On to “N-(4-(N,N-bis(4-methoxybenzyl)sulfamoyl)-1-(4-fluorobenzyl)-1H-indazol-6-yl)-2-(2-chlorophenyl)acetamide [Compound 88A]”, for which the concentration for half-maximal inhibition (IC50) is no more than 10 nM.

On to `NS(=O)(=O)c1cc(NC(=O)Cc2ccccc2Cl)cc2nn(C(=O)c3ccc(F)cc3)cc12` [Compound 42-A, 2-(2-chlorophenyl)-N-(2-(4-fluorobenzoyl)-4-sulfamoyl-2H-indazol-6-yl)acetamide], for which the IC50 was in the range of 10 to 50 nM.

On to `NS(=O)(=O)c1cc(NC(=O)Cc2ccccc2Cl)cc2c1cnn2CC1CCCCC1` [Compound 32-B, 2-(2-chlorophenyl)-N-(1-(cyclohexylmethyl)-4-sulfamoyl-1H-indazol-6-yl)acetamide], for which the IC50 was in the range of 10 to 50 nM.

Take `Nc1ccc(Cn2ncc3c(S(N)(=O)=O)cc(NC(=O)Cc4ccccc4Cl)cc32)cc1` [Compound 95A, N-(1-(4-aminobenzyl)-4-sulfamoyl-1H-indazol-6-yl)-2-(2-chlorophenyl)acetamide]: the IC50 is no more than 10 nM.

`CC1(n2cc3c(S(N)(=O)=O)cc(NC(=O)Cc4ccccc4Cl)cc3n2)CC1` [Compound 22, 2-(2-chlorophenyl)-N-(2-(1-methylcyclopropyl)-4-sulfamoyl-2H-indazol-6-yl)acetamide]: the concentration for half-maximal inhibition (IC50) was 10 to 50 nM.

For the molecule `NS(=O)(=O)c1cc(NC(=O)Cc2ccccc2Cl)cc2nc(C3CC3)[nH]c12` [Compound 52, 2-(2-chlorophenyl)-N-(2-cyclopropyl-7-sulfamoyl-1H-benzo[d]imidazol-5-yl)acetamide], the 50% inhibitory concentration (IC50) is 200 to 5000 nM.

As for `NS(=O)(=O)c1cc(NC(=O)Cc2ccccc2Cl)cc2c1cnn2-c1ccc(Cl)cc1` [Compound 45, 2-(2-chlorophenyl)-N-(1-(4-chlorophenyl)-4-sulfamoyl-1H-indazol-6-yl)acetamide], the IC50 lay in the range of 10 to 50 nM.

Turning to `COc1ccc(Cn2ncc3c(S(N)(=O)=O)cc(NC(=O)Cc4ccccc4Cl)cc32)c(F)c1` [Compound 83, 2-(2-chlorophenyl)-N-(1-(2-fluoro-4-methoxybenzyl)-4-sulfamoyl-1H-indazol-6-yl)acetamide], the IC50 was no more than 10 nM.

On to `NS(=O)(=O)c1cc(NC(=O)Cc2ccccc2Cl)cc2nn(Cc3ccc(O)cc3)cc12` [Compound 34, 2-(2-chlorophenyl)-N-(2-(4-hydroxybenzyl)-4-sulfamoyl-2H-indazol-6-yl)acetamide], for which the IC50 fell in the range of 10 to 50 nM.

In the case of `CC(c1ccc(F)cc1)n1ncc2c(S(N)(=O)=O)cc(NC(=O)Cc3ccccc3Cl)cc21` (centres unmarked) [Compound 40-B, 2-(2-chlorophenyl)-N-(1-(1-(4-fluorophenyl)ethyl)-4-sulfamoyl-1H-indazol-6-yl)acetamide], the IC50 was no more than 10 nM.

With `COc1ccc(Cn2cc3c(S(N)(=O)=O)cc(NC(=O)Cc4ccccc4Cl)cc3n2)c(F)c1` [Compound 85], the IC50 is no more than 10 nM.

Take `CC(C)C(F)(F)n1cc2c(S(N)(=O)=O)cc(NC(=O)Cc3ccccc3Cl)cc2n1` [Compound 23, 2-(2-chlorophenyl)-N-(2-(1,1-difluoro-2-methylpropyl)-4-sulfamoyl-2H-indazol-6-yl)acetamide]: the IC50 lay within 10 to 50 nM.

Regarding `NS(=O)(=O)c1cc(NC(=O)Cc2ccccc2Cl)cc2nn(Cc3ccc(C(F)(F)F)cc3)cc12` [Compound 90, 2-(2-chlorophenyl)-N-(4-sulfamoyl-2-(4-(trifluoromethyl)benzyl)-2H-indazol-6-yl)acetamide], the IC50 was no more than 10 nM.

With `NS(=O)(=O)c1cc(NC(=O)Cc2ncccc2Cl)cc2nn(C(F)F)cc12` [Compound 113, 2-(3-chloropyridin-2-yl)-N-(2-(difluoromethyl)-4-sulfamoyl-2H-indazol-6-yl)acetamide], the IC50 fell in the range of 200 to 5000 nM.

As for `Cc1ccc(Cn2cc3c(S(N)(=O)=O)cc(NC(=O)Cc4ccccc4Cl)cc3n2)cc1` [Compound 92, 2-(2-chlorophenyl)-N-(2-(4-methylbenzyl)-4-sulfamoyl-2H-indazol-6-yl)acetamide], the IC50 was no more than 10 nM.

Turning to `COc1ccccc1Cn1ncc2c(S(N)(=O)=O)cc(NC(=O)Cc3ccccc3Cl)cc21` [Compound 37-B, 2-(2-chlorophenyl)-N-(1-(2-methoxybenzyl)-4-sulfamoyl-1H-indazol-6-yl)acetamide], the IC50 lay within 10 to 50 nM.

For `NS(=O)(=O)c1cc(NC(=O)Cc2ccccc2Cl)cc2c1CN(Cc1ccc(F)cc1)C2` [Compound 132, 2-(2-chlorophenyl)-N-(2-(4-fluorobenzyl)-7-sulfamoyliodo-5-yl)acetamide], the IC50 was in the range of 200 to 5000 nM.

For the molecule `NS(=O)(=O)c1cc(NC(=O)Cc2ccccc2Cl)cc2c1cnn2CC1CCOCC1` [Compound 141A, 2-(2-chlorophenyl)-N-(4-sulfamoyl-1-((tetrahydro-2H-pyran-4-yl)methyl)-1H-indazol-6-yl)acetamide], the concentration for half-maximal inhibition (IC50) lay within 50 to 200 nM.

Consider `Cc1ccc(Cn2ncc3c(S(N)(=O)=O)cc(NC(=O)Cc4ccccc4Cl)cc32)cc1` [Compound 92A, 2-(2-chlorophenyl)-N-(1-(4-methylbenzyl)-4-sulfamoyl-1H-indazol-6-yl)acetamide], for which the IC50 was no more than 10 nM.

Regarding `NS(=O)(=O)c1cc(NC(=O)Cc2ccccc2Cl)cc2nn(C(=O)C3CC3)cc12` [Compound 16-B, 2-(2-chlorophenyl)-N-(2-(cyclopropylcarbonyl)-4-sulfamoyl-2H-indazol-6-yl)acetamide], the half-maximal inhibitory concentration (IC50) was no more than 10 nM.

Broadly, the IC50 is the concentration that gives 50% inhibition.
